The source of these data is ChEMBL document CHEMBL1201862, “PubChem BioAssay data set” (2004).

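All cell lines were grown in 96-well plates and treated with compound for 48 hours. Here, GI50 denotes the concentration required for 50% inhibition of growth.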 Activity calls are given as the source filed them. No stated cut-off is given here; in the data, active = GI50 up to about 1.1 µM and inactive = higher. Bounds are passed on as bounds.

Among the test systems are HCT-15; HOP-92; Hs-578T; IGROV-1; KM12; NCI-H522; NCI/ADR-RES; OVCAR-8; PC-3; RPMI-8226; SF-268; SK-MEL-28; SK-OV-3; SNB-19; T47D; UO-31; RXF 393; HCC 2998.
Assay in all cases: growth of human tumour cells (NCI), 48 h

For the molecule `O=C(CCN1CCOCC1)Nc1ccc(F)cc1F`, the GI50 in the assay on HCT-15 is > 100 µM; in the assay on HOP-92, > 100 µM (inactive); with Hs-578T, > 100 µM (inactive); in the assay on IGROV-1, > 100 µM (inactive); in the assay with KM12, > 100 µM (inactive); in the assay on NCI-H522, > 100 µM (inactive). The GI50 with NCI/ADR-RES, in the assay on OVCAR-8, in the assay on PC-3, in the assay with RPMI-8226, with SF-268 and with SK-MEL-28 was > 100 µM (inactive) in each case. Besides, the GI50 in the assay with SK-OV-3, in the assay with SNB-19, in the assay on T47D and in the assay on UO-31 was > 100 µM (inactive) throughout.

For `O=P1(Oc2ccccc2)N=P(c2ccccc2)(c2ccccc2)C=C(c2ccc(Cl)cc2)N1` (stereo not drawn), the GI50 is 9.84 µM in the assay with HCT-15; 9.18 µM (inactive) in the assay on HOP-92; 16.7 µM (inactive) with Hs-578T; 12.2 µM (inactive) with IGROV-1; 10.3 µM (inactive) in the assay with KM12; 10.1 µM (inactive) in the assay on NCI-H522. In addition, the GI50 in the assay on NCI/ADR-RES is 10.9 µM (inactive); in the assay on OVCAR-8 it was 14.4 µM (inactive); with PC-3, 6.58 µM (inactive); with RPMI-8226, 3.03 µM (inactive); with SF-268, 11.6 µM (inactive); in the assay on SK-OV-3, 13.2 µM (inactive). Besides, the GI50 was 15.3 µM (inactive) in the assay on SNB-19, 5.19 µM (inactive) in the assay on T47D and 12 µM (inactive) in the assay with UO-31.

Take `O=C(NCCc1n[nH]c2c1C(=O)C=C(Nc1ccccc1)C2=O)OCc1ccccc1`: the GI50 in the assay with HCT-15 was > 100 µM; in the assay with HOP-92, > 100 µM (inactive); in the assay with Hs-578T, > 100 µM (inactive); with IGROV-1, > 100 µM (inactive); in the assay on KM12 it was > 100 µM (inactive); with NCI-H522, > 100 µM (inactive). The GI50 in the assay on NCI/ADR-RES, in the assay on OVCAR-8, in the assay with PC-3, with RPMI-8226, with RXF 393 and in the assay on SF-268 was > 100 µM (inactive) each time. Further, the GI50 in the assay on SK-OV-3 is > 100 µM (inactive); with SNB-19 it was > 100 µM (inactive); in the assay with T47D, 53.8 µM (inactive); with UO-31 it was > 100 µM (inactive).

For the molecule `Cc1ccc2nc(Cl)c(/C=N/N3C(=O)/C(=C/c4cccc([N+](=O)[O-])c4)N=C3c3ccccc3)cc2c1`, the GI50 in the assay on HCC 2998 is 67.5 µM (inactive); with HCT-15, 42.2 µM; with HOP-92 it was 46.3 µM (inactive); in the assay on Hs-578T it was 94.6 µM (inactive); with IGROV-1, 31.2 µM (inactive); with KM12 it was 36.6 µM (inactive). Besides, the GI50 in the assay with NCI/ADR-RES was 36.5 µM (inactive); in the assay with OVCAR-8 it was 72.4 µM (inactive); in the assay on PC-3 it was 25.4 µM (inactive); in the assay with RPMI-8226, 31.3 µM (inactive); in the assay on SF-268 it was 97.1 µM (inactive); in the assay with SK-MEL-28, > 100 µM (inactive). For the same molecule, the GI50 with SK-OV-3 was 94.2 µM (inactive); with SNB-19, > 100 µM (inactive); in the assay with T47D it was 59.8 µM (inactive); in the assay on UO-31, 38 µM (inactive).

With `COC(=O)CN1SC2(SC13C(C)(C)C(=O)C3(C)C)C(C)(C)C(=O)C2(C)C`, the GI50 in the assay on HCC 2998 is 80.2 µM (inactive); with HCT-15, > 100 µM; in the assay with HOP-92, 0.0244 µM (active); in the assay on Hs-578T, > 100 µM (inactive); with IGROV-1, 89.5 µM (inactive); in the assay on KM12, 44.6 µM (inactive). For the same molecule, the GI50 in the assay on NCI/ADR-RES was 34.1 µM (inactive); in the assay with OVCAR-8, 64.4 µM (inactive); in the assay on PC-3, 29.2 µM (inactive); in the assay on RPMI-8226, 49.8 µM (inactive); in the assay with SF-268, 36.1 µM (inactive); with SK-MEL-28, > 100 µM (inactive). The GI50 is 41 µM (inactive) in the assay with SK-OV-3, > 100 µM (inactive) in the assay with SNB-19, > 100 µM (inactive) in the assay on T47D and 86.3 µM (inactive) in the assay on UO-31.

As for `C[n+]1c(-c2ccc(/C=N/NC(=N)N/N=C/c3ccc(-c4cn5cc(Cl)ccc5[n+]4C)cc3)cc2)cn2cc(Cl)ccc21`, the GI50 with HCC 2998 is > 100 µM (inactive); in the assay with HCT-15, > 100 µM; with Hs-578T, > 100 µM (inactive); with IGROV-1, > 100 µM (inactive); in the assay on KM12, > 100 µM (inactive); in the assay on NCI-H522, > 100 µM (inactive). For the same molecule, the GI50 in the assay on NCI/ADR-RES, in the assay on OVCAR-8, in the assay with PC-3, in the assay on RPMI-8226, in the assay on SF-268 and in the assay on SK-MEL-28 was > 100 µM (inactive) each time. In addition, the GI50 in the assay with SK-OV-3 was > 100 µM (inactive); in the assay on SNB-19, > 100 µM (inactive); with T47D, > 100 µM (inactive); with UO-31, 69.8 µM (inactive).

Consider `Brc1cccc(/N=N/N2CCCC2)c1`, for which the GI50 in the assay with HCT-15 is 49.4 µM; in the assay on HOP-92, 63.1 µM (inactive); in the assay with Hs-578T it was > 100 µM (inactive); with IGROV-1, > 100 µM (inactive); with KM12, 93.5 µM (inactive); in the assay with NCI-H522, 68.9 µM (inactive). Moreover, the GI50 in the assay on NCI/ADR-RES was 81.5 µM (inactive); in the assay with OVCAR-8 it was > 100 µM (inactive); in the assay with PC-3, 71.3 µM (inactive); in the assay with RPMI-8226, 17.2 µM (inactive); in the assay with RXF 393, > 100 µM (inactive); with SF-268 it was > 100 µM (inactive). Moreover, the GI50 is > 100 µM (inactive) with SK-OV-3, > 100 µM (inactive) in the assay with SNB-19, 50.2 µM (inactive) in the assay with T47D and 56.1 µM (inactive) with UO-31.

Turning to `C=CCN1C[C@@H](C)N([C@@H](c2ccc(C(=O)N(CC)CC)cc2)c2cccc(OC)c2)C[C@@H]1C`, the GI50 was > 100 µM with HCT-15; > 100 µM (inactive) with HOP-92; > 100 µM (inactive) with Hs-578T; > 100 µM (inactive) in the assay on IGROV-1; > 100 µM (inactive) in the assay with KM12; > 100 µM (inactive) with NCI-H522. The GI50 in the assay with NCI/ADR-RES, in the assay with OVCAR-8, in the assay with PC-3, in the assay on RPMI-8226, in the assay on SF-268 and with SK-MEL-28 was > 100 µM (inactive) throughout. For the same molecule, the GI50 in the assay on SK-OV-3, in the assay on SNB-19, in the assay on T47D and in the assay with UO-31 was > 100 µM (inactive) throughout.

As for `CC(C)=CCC/C(C)=C/CO` [GERANIOL], the GI50 is > 100 µM (inactive) in the assay with HCC 2998; > 100 µM with HCT-15; > 100 µM (inactive) in the assay with Hs-578T; > 100 µM (inactive) with IGROV-1; > 100 µM (inactive) with KM12; > 100 µM (inactive) with NCI-H522. The GI50 in the assay on NCI/ADR-RES, in the assay on OVCAR-8, with PC-3, with RPMI-8226, in the assay with SF-268 and in the assay on SK-MEL-28 was > 100 µM (inactive) each time. Moreover, the GI50 in the assay with SK-OV-3, in the assay with SNB-19, with T47D and with UO-31 was > 100 µM (inactive) throughout.
